Measurements taken from article PMC12446003, “Pharmacological characterization of linaprazan glurate (X842), a novel potassium-competitive acid blocker, in vitro and in vivo” (Frontiers in Pharmacology, 2025).
Read-outs that look alike come from different tables or passages of the source.

Assays:
[1] = Pharmacokinetic assessment of X842 in dogs (IV, single oral, repeated oral); type: in vivo; details: beagle, dog, plasma, analyte as labelled; for half-life at 1 day: read-out: t1/2 Day 1 (converted); for half-life at 7 day: read-out: t1/2 Day 7 (converted); for half-life: read-out: t1/2 (converted)
Description: (§1) Pharmacokinetic assessments were conducted by Shanghai Medicilon Inc. Using C18 solid-phase extraction (Shimadzu UFLC-20A, ACE 3, C18, 3.0 µm, 150 × 4.6 mm; Shimadzu, Japan) with the following conditions: mobile phase A: 1 M ammonium acetate in water, mobile phase B: 100% acetonitrile; gradient 0–5 min: 100% A, 5–30 min: 85% A, 35–63 min: 75% A, 63–65 min: 55% A, 65–70 min: 0% A, 72–87 min: 100% A; flow rate 0.7 mL/min; column temperature 30 °C ([Weidof and Covey, 1992]). […] Bioavailability was calculated as F (%) = (Doseiv × AUCpo(0–24h)) ÷ (Dosepo × AUCiv (0–24h)) × 100%, where “po” represents oral administration and “iv” represents intravenous administration.
Male and female Beagle dogs weighing around 9 kg were arbitrarily selected for testing. Food and water were provided ad libitum, except during overnight fasting (15–16 h) prior to oral drug administration ([Adebowale et al., 2002]). X842 were dissolved in the PEG400/ethanol/Solutol/water mixture (40:10:5:45% v/v) and methane sulfonic acid was used to adjust to pH 3, yielding solutions with concentrations of 0.3 mg/mL, 1.2 mg/mL, and 4.8 mg/mL for oral administration. There were four rounds of drug administration. One week was required between the rounds of testing according to the conditions for of animal welfare maintenance. For IV injection, a drug solution with a concentration of 0.3 mg/mL was prepared and filtered through a 0.22-μm filter. Blood samples were collected via the jugular vein using the same procedures as were used for the rat experiments. Following centrifugation, the plasma was transferred to clean tubes and stored at −80 °C until further analysis. All animals were euthanized by phenobarbital injection after the final blood sample collection. Pharmacokinetic assessments were conducted as described in 2.2.1.

[2] = Pharmacokinetic assessment of X842 in rats (IV, single oral, repeated oral); type: in vivo, Sprague-Dawley rats; details: Sprague-Dawley, rat, plasma; for AUC(0-t): read-out: AUC(0–24h); for half-life: read-out: t1/2 (converted)
Description: Male and female Sprague-Dawley rats weighing approximately 150 g were housed individually with a 12-h light/dark cycle. Food and water were provided ad libitum, except during overnight fasting (10–16 h) prior to oral drug administration, as described previously ([Kotegawa et al., 1998]; [Kotegawa et al., 2002]). To investigate the absorption kinetics of X842 (prodrug) and linaprazan (metabolite, parent drug) in rats after oral and intravenous administration of X842, X842 were dissolved in 5% Solutol HS15/45% ethanol/10% PEG400/40% saline, and methane sulfonic acid was used to adjust to pH 3, yielding solutions with concentrations of 0.6 mg/mL, 2.4 mg/mL, and 9.6 mg/mL for oral administration. For intravenous (IV) injection, a drug solution (0.6 mg/mL) was prepared and filtered through a 0.22-μm filter. Blood samples were collected via the jugular vein of conscious rats (without intubation, narcotics, or antibiotics) prior to dosing and at 0.083, 0.25, 0.5, 1, 2, 4, 6, 8, and 24 h after dosing. Blood samples were placed into tubes containing sodium heparin and centrifuged at 3,500 rpm for 10 min at 4 °C. Following centrifugation, the plasma was transferred to clean tubes and stored at −80 °C until further analysis. All animals were euthanized by carbon dioxide (CO2) inhalation after the final blood sample collection.
as §1

[3] = 1.2 mg/kg, female dogs, repeat oral X842, Day 1
[4] = 1.2 mg/kg, female dogs, repeat oral X842, Day 7
[5] = female dogs, intravenous X842 0.3 mg/kg
[6] = female dogs, single oral X842 0.3 mg/kg
[7] = female dogs, single oral X842 1.2 mg/kg
[8] = female dogs, single oral X842 4.8 mg/kg
[9] = male dogs, intravenous X842 0.3 mg/kg
[10] = male dogs, single oral X842 0.3 mg/kg
[11] = male dogs, single oral X842 1.2 mg/kg
[12] = male dogs, single oral X842 4.8 mg/kg
[13] = female, iv, 0.6 mg/kg, female rats, intravenous X842, plasma analyte as labelled
[14] = female, po, 0.6 mg/kg, female rats, single oral X842 0.6 mg/kg, analyte as labelled
[15] = female, po, 2.4 mg/kg, female rats, single oral X842 2.4 mg/kg, analyte as labelled
[16] = female, po, 9.6 mg/kg, female rats, single oral X842 9.6 mg/kg, analyte as labelled
[17] = male, iv, 0.6 mg/kg, male rats, intravenous X842, plasma analyte as labelled
[18] = male, po, 0.6 mg/kg, male rats, single oral X842 0.6 mg/kg, analyte as labelled
[19] = male, po, 2.4 mg/kg, male rats, single oral X842 2.4 mg/kg, analyte as labelled
[20] = male, po, 9.6 mg/kg, male rats, single oral X842 9.6 mg/kg, analyte as labelled

Compound: Cc1cccc(C)c1CNc1cc(C(=O)NCCO)cn2c(C)c(C)nc12 [linaprazan]
- Cmax at 1 day [1, 3]: 67.2 ± 4.7 ng/mL
- half-life at 1 day [1, 3]: 3.2 ± 0.42 h
- Cmax at 7 day [1, 4]: 65 ± 4.7 ng/mL
- half-life at 7 day [1, 4]: 5.1 ± 1.1 h
- half-life at 1 day ([1]; 1.2 mg/kg, male dogs, 7 days of repeat oral X842, Day 1): 2.8 ± 0.2 h
- half-life at 7 day ([1]; 1.2 mg/kg, male dogs, 7 days of repeat oral X842, Day 7): 3.8 ± 0.4 h
- Cmax at 1 day ([1]; 1.2 mg/kg, male dogs, repeat oral X842, Day 1): 82.8 ± 56.5 ng/mL
- Cmax at 7 day ([1]; 1.2 mg/kg, male dogs, repeat oral X842, Day 7): 67.5 ± 23.9 ng/mL
- Cmax [1, 5]: 30.6 ± 6.2 ng/mL
- half-life [1, 5]: 1.6 ± 0.2 h
- Cmax [1, 6]: 10.4 ± 1.4 ng/mL
- half-life [1, 6]: 2.1 ± 0.4 h
- Cmax [1, 7]: 67.2 ± 4.7 ng/mL
- half-life [1, 7]: 3.2 ± 0.42 h
- Cmax [1, 8]: 535 ± 149 ng/mL
- half-life [1, 8]: 2.2 ± 0.9 h
- Cmax [1, 9]: 45.5 ± 21.4 ng/mL
- half-life [1, 9]: 1.5 ± 0.25 h
- Cmax [1, 10]: 15.8 ng/mL
- half-life [1, 10]: 2.2 ± 0.7 h
- Cmax [1, 11]: 82.8 ± 56.5 ng/mL
- half-life [1, 11]: 2.8 ± 0.2 h
- Cmax [1, 12]: 851 ± 116 ng/mL
- half-life [1, 12]: 2.6 ± 0.2 h
- AUC(0-t) ([1]; female, iv, 0.3 mg/kg, female dogs, intravenous X842 0.3 mg/kg, read-out: AUC(0-24h)): 106 ± 13.9 ng·h/mL
- AUC(0-t) ([1]; female, po, 0.3 mg/kg, female dogs, single oral X842 0.3 mg/kg, read-out: AUC(0-24h)): 48.7 ± 7.4 ng·h/mL
- AUC(0-t) ([1]; female, po, 1.2 mg/kg, female dogs, repeat oral X842, Day 1, read-out: AUC(0-24h) Day 1): 412 ± 166 ng·h/mL
- AUC(0-t) ([1]; female, po, 1.2 mg/kg, female dogs, repeat oral X842, Day 7, read-out: AUC(0-24h) Day 7): 508 ± 41.8 ng·h/mL
- AUC(0-t) ([1]; female, po, 1.2 mg/kg, female dogs, single oral X842 1.2 mg/kg, read-out: AUC(0-24h)): 412 ng·h/mL
- AUC(0-t) ([1]; female, po, 4.8 mg/kg, female dogs, single oral X842 4.8 mg/kg, read-out: AUC(0-24h)): 2920 ng·h/mL
- AUC(0-t) ([1]; male, iv, 0.3 mg/kg, male dogs, intravenous X842 0.3 mg/kg, read-out: AUC(0-24h)): 170 ± 26.2 ng·h/mL
- AUC(0-t) ([1]; male, po, 0.3 mg/kg, male dogs, single oral X842 0.3 mg/kg, read-out: AUC(0-24h)): 77.8 ± 66.8 ng·h/mL
- AUC(0-t) ([1]; male, po, 1.2 mg/kg, male dogs, repeat oral X842, Day 1, read-out: AUC(0-24h) Day 1): 436 ± 272 ng·h/mL
- AUC(0-t) ([1]; male, po, 1.2 mg/kg, male dogs, repeat oral X842, Day 7, read-out: AUC(0-24h) Day 7): 439 ± 81.6 ng·h/mL
- AUC(0-t) ([1]; male, po, 1.2 mg/kg, male dogs, single oral X842 1.2 mg/kg, read-out: AUC(0-24h)): 436 ng·h/mL
- AUC(0-t) ([1]; male, po, 4.8 mg/kg, male dogs, single oral X842 4.8 mg/kg, read-out: AUC(0-24h)): 4850 ng·h/mL
- Cmax [2, 13]: 80.5 ± 17.7 ng/mL
- AUC(0-t) [2, 13]: 133 ± 11.1 ng·h/mL
- half-life [2, 13]: 2 ± 0.4 h
- Cmax [2, 14]: 13.5 ± 5.8 ng/mL
- AUC(0-t) [2, 14]: 67.6 ± 23.7 ng·h/mL
- half-life [2, 14]: 3.7 ± 1.6 h
- Cmax [2, 15]: 72.5 ± 5.6 ng/mL
- AUC(0-t) [2, 15]: 382 ± 44.9 ng·h/mL
- half-life [2, 15]: 2.7 ± 0.4 h
- Cmax [2, 16]: 336 ± 69.4 ng/mL
- AUC(0-t) [2, 16]: 3020 ng·h/mL
- half-life [2, 16]: 2.6 ± 0.1 h
- Cmax [2, 17]: 114 ± 17 ng/mL
- half-life ([2]; male, iv, 0.6 mg/kg, male rats, intravenous X842, plasma analyte as labelled (prodrug X842 / parent linaprazan)): 1.4 ± 0.1 h
- AUC(0-t) [2, 17]: 114 ± 7.1 ng·h/mL
- Cmax [2, 18]: 6.2 ± 1.7 ng/mL
- AUC(0-t) [2, 18]: 22.1 ± 9.9 ng·h/mL
- half-life [2, 18]: 2.2 ± 1 h
- Cmax [2, 19]: 32 ± 9.7 ng/mL
- AUC(0-t) [2, 19]: 134 ± 43.3 ng·h/mL
- half-life [2, 19]: 2.6 ± 0.5 h
- Cmax [2, 20]: 128 ± 17.5 ng/mL
- AUC(0-t) [2, 20]: 576 ± 46.1 ng·h/mL
- half-life [2, 20]: 3.1 ± 0.3 h
